Assay results from ChEMBL document CHEMBL3045006, “Synthesis and anticonvulsant activity of 8-alkoxy-5,6-dihydro-4H-benzo[f][1,2,4]triazolo[4,3-a]azepine derivatives” (Med Chem Res, 2012).
The source made the active and inactive calls. The calls are words filed in the database; no cut-off is given here.

What was measured:
[1] = test system: Mus musculus; test: Anticonvulsant activity against subcutaneous pentylenetetrazole-induced seizures in Mus musculus Swiss (mouse) at 100 mg/kg, ip measured at phase 1; type: functional, organism-based; set-up: dose 100 mg/kg
[2] = test system: Mus musculus; test: Protective index, ratio of TD50 for Mus musculus Swiss (mouse) to ED50 for Mus musculus Swiss (mouse) by subcutaneous pentylenetetrazole-induced seizure test; type: functional
[3] = test system: Mus musculus; test: Anticonvulsant activity against maximal electroshock-induced seizures in ip dosed Mus musculus Swiss (mouse) administered 30 min before MES induction measured at phase 2; type: functional
[4] = (§1) Neurotoxicity in ip dosed Mus musculus Swiss (mouse) assessed as minimum motor impairment by rotarod test; type: toxicity, organism-based; details: Swiss, in vivo
[5] = test system: Mus musculus; test: Anticonvulsant activity against subcutaneous pentylenetetrazole-induced seizures in ip dosed Mus musculus Swiss (mouse) at 30 mg/kg, ip measured at phase 2; type: functional; details: sc
[6] = species: Mus musculus; test: Protective index, ratio of TD50 for Mus musculus Swiss (mouse) to ED50 for Mus musculus Swiss (mouse) by maximal electroshock-induced seizure test; type: functional
[7] = test system: Mus musculus; test: Anticonvulsant activity against maximal electroshock-induced seizures in Mus musculus Swiss (mouse) at 100 mg/kg, ip administered 30 min before MES induction measured at phase 1; type: functional, organism-based; set-up: dose 100 mg/kg
[8] = test system: Mus musculus; test: Anticonvulsant activity against subcutaneous pentylenetetrazole-induced seizures in Mus musculus Swiss (mouse) at 30 mg/kg, ip measured at phase 1; type: functional, organism-based; set-up: dose 30 mg/kg
[9] = test system: Mus musculus; test: Anticonvulsant activity against maximal electroshock-induced seizures in Mus musculus Swiss (mouse) at 30 mg/kg, ip administered 30 min before MES induction measured at phase 1; type: functional, organism-based; set-up: dose 30 mg/kg
[10] = test system: Mus musculus; test: as §1; type: toxicity, organism-based; details: in vivo
[11] = test system: Mus musculus; test: Anticonvulsant activity against maximal electroshock-induced seizures in Mus musculus Swiss (mouse) at 300 mg/kg, ip administered 30 min before MES induction measured at phase 1; type: functional, organism-based; set-up: dose 300 mg/kg

| Structure (SMILES) | Activity [1] | Ratio TD50/ED50 [2] | ED50 [3] [mg/kg] | TD50 [4] [mg/kg] | ED50 [5] [mg/kg] | Ratio TD50/ED50 [6] | Activity [7] | Activity [8] | Activity [9] | TD50 [10] | Activity [11] |
| --- | --- | --- | --- | --- | --- | --- | --- | --- | --- | --- | --- |
| Brc1ccc(COc2ccc3c(c2)CCCc2nncn2-3)cc1 | Active | 0.9 | 27 | 96.2 | > 100 | 3 | Active | inactive |  |  |  |
| CCCC(CCC)C(=O)O [VALPROIC ACID] |  |  |  |  | 149 |  |  |  |  |  |  |
| Clc1ccccc1COc1ccc2c(c1)CCCc1nncn1-2 | inactive | <0.7 | 20.5 | 70.9 | > 100 | 3.4 |  | inactive | Active |  |  |
| CCCCCCCOc1ccc2c(c1)CCCc1nncn1-2 | Active | 2.6 | 19.7 | 68.4 | 26.4 | 3.5 |  |  | Active |  |  |
| Fc1ccccc1COc1ccc2c(c1)CCCc1nncn1-2 | Active | 2.4 | 19 | 84.9 | 35.4 | 4.5 |  |  | Active |  |  |
| CCC1(c2ccccc2)C(=O)NC(=O)NC1=O [PHENOBARBITAL] |  |  | 21.8 |  | 13.2 |  |  |  |  |  |  |
| NC(=O)N1c2ccccc2C=Cc2ccccc21 [CARBAMAZEPINE] |  |  | 8.8 |  | > 100 |  |  |  |  |  |  |
| Cc1ccc(COc2ccc3c(c2)CCCc2nncn2-3)cc1 | inactive | 1.1 | 27.4 | 82.9 | 90.1 | 3.6 | Active | inactive |  |  |  |
| Fc1cccc(COc2ccc3c(c2)CCCc2nncn2-3)c1 | Active |  | 27.4 | > 100 | > 100 |  | Active | inactive |  |  |  |
| Clc1cccc(COc2ccc3c(c2)CCCc2nncn2-3)c1 | Active | 1.5 | 29.5 | 120 | 80.7 | 4.1 | Active | inactive |  |  |  |
| CCCOc1ccc2c(c1)CCCc1nncn1-2 | inactive |  | 73.3 |  | > 100 |  | Active | inactive |  | Not Active |  |
| O=C1NC(=O)C(c2ccccc2)(c2ccccc2)N1 [PHENYTOIN] |  |  |  |  | > 300 |  |  |  |  |  |  |
| Clc1ccc(COc2ccc3c(c2)CCCc2nncn2-3)cc1 | Active | 1.4 | 27.4 | 98.6 | 68.2 | 3.7 | Active | inactive |  |  |  |
| CCCCCCOc1ccc2c(c1)CCCc1nncn1-2 |  | 3.4 | 17.7 | 84.2 | 24.6 | 4.8 |  |  | Active |  |  |
| CCCCOc1ccc2c(c1)CCCc1nncn1-2 | Active | 2 | 21.2 | 73.3 | 36.7 | 3.5 |  |  | Active |  |  |
| Fc1ccc(COc2ccc3c(c2)CCCc2nncn2-3)cc1 | Active | 2.1 | 27.4 | 97.4 | 47.3 | 3.6 | Active |  |  |  |  |
| CCCCCOc1ccc2c(c1)CCCc1nncn1-2 |  | 5.4 | 17.5 | 114 | 21.2 | 6.5 |  | Active | Active |  |  |
| COc1ccc2c(c1)CCCc1nncn1-2 | inactive |  |  |  |  |  |  | inactive | Active |  | Active |
| c1ccc(COc2ccc3c(c2)CCCc2nncn2-3)cc1 | Active | 1 | 23.7 | 78.9 | 78.9 | 3.3 |  | inactive | Active |  |  |
